Results as given in patent US10213415B2, “Compounds as opioid receptor modulators” (JANSSEN PHARMACEUTICA NV, priority 2004, dated 2019).
Values joined by “and” are separate entries in the source; they are usually repeats but may differ in a detail not shown here. Identical values can stand only once. Like-named read-outs stand apart in the source and are kept apart here.

Experiments:
[1] = molecular target: T1, delta opioid receptor (NG108-15 cell membranes) (Mus musculus, UniProt P32300); assay: Delta Opioid Receptor Functional Assay: [35S]GTPγS Binding in NG108-15 Cell Membranes, Version 2; type: biochemical; conditions: for DOR GTP-binding Assay v2 (% I): % inhibition of agonist-stimulated GTPγS binding
T1 construct: NG108-15 cell membranes were purchased from Applied Cell Sciences (Rockville, Md.); host or cells: NG108-15 cells (membranes purchased)
T1 sequence (P32300 whole entry): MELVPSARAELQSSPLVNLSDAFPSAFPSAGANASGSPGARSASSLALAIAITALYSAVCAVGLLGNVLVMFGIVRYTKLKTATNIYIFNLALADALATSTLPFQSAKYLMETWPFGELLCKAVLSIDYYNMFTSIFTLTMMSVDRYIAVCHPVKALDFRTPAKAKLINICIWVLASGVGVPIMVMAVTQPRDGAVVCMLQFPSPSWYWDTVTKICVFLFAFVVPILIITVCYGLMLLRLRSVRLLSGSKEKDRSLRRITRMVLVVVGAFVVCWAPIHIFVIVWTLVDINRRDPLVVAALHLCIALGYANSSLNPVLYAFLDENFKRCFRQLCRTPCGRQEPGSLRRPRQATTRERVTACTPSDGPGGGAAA
Summary of the method: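 SPA-coupled NG108-15 membranes (37.5 μg/ml) were incubated with 0.1 nM [35S]GTPγS and 100 μM GDP in Tris pH 7.6, 5 mM MgCl2, 100 mM NaCl, with increasing agonist concentrations; 10 μM unlabeled GTPγS defined nonspecific binding. EC50 from % of basal; inhibition as % of 1 μM SNC80 stimulation.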

[2] = molecular target: T2, human delta subtype 2 opioid receptor (Homo sapiens, UniProt P41143); assay: Human Delta Opioid Receptor Binding Assay (CHO membranes, 3H-Naltrindole); conditions: read-out: hKi δ
T2 construct: purchased Perkin Elmer RBHODM400UA; host or cells: Chinese Hamster Ovary cells (recombinant expression)
T2 sequence (P41143 whole entry): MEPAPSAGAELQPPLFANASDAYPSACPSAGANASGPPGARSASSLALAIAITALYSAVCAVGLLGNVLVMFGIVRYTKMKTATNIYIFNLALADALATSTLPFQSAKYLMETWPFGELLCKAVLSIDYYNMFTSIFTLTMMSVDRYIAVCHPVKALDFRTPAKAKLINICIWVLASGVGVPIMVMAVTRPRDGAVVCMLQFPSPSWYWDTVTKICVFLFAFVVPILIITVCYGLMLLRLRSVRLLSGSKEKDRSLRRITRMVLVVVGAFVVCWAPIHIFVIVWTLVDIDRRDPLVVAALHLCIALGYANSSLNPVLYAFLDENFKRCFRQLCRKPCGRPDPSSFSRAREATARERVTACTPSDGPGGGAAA
Summary of the method: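 Compound displacement of tritiated naltrindole (6 nM working dilution) measured by scintillation counting after GF/C filtration. Receptor source: recombinant CHO membranes; buffer 50 mM Tris, 5 mM MgCl2, pH 7.5; 30 min room-temperature incubation. 1 μM cold naltrindole sets nonspecific binding.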

delta opioid receptor = molecular target: T3, delta opioid receptor (Rattus norvegicus, UniProt P33533); assay: Rat Brain Delta Opioid Receptor Binding Assay ([3H]DPDPE); conditions: rat forebrain membranes, margin of error 10-20%
T3 construct: from tissue; host or cells: forebrain of male Wistar rats
T3 sequence (P33533 whole entry): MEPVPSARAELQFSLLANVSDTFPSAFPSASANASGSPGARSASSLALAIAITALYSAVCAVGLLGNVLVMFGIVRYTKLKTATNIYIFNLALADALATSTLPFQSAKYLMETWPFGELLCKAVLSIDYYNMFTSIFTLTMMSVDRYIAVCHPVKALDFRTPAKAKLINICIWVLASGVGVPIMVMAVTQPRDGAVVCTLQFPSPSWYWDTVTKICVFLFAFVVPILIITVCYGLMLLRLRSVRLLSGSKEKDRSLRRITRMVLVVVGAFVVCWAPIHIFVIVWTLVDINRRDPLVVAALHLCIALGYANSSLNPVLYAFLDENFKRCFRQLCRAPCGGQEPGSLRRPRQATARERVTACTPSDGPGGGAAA
Summary of the method: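 Rat (male Wistar) forebrain membranes in 50 mM Tris-HCl pH 7.4 with 5 mM MgCl2, incubated with ~4 nM [3H]DPDPE for 2.5 h at 25 °C. Bound ligand collected by filtration and scintillation counting. Single-concentration data given as % inhibition of specific binding; concentration series fitted to Ki.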

[3] = NG108-15 cell membranes, [35S]GTPγS, version 2, read-out: DOR GTP-binding Assay_v2_ EC50
[4] = NG108-15 cell membranes, version 2

| Compound | EC50 [1, 3] | DOR GTP-binding Assay v2 (% I) [1, 4] | Ki [2] | Ki (delta opioid receptor; read-out: r Ki δ) | Ki (delta opioid receptor; r Ki δ) | EC50 [1] |
| --- | --- | --- | --- | --- | --- | --- |
| COc1ccc(CN(C(=O)[C@@H](N)Cc2c(C)cc(C(N)=O)cc2C)[C@@H](C)c2nc(-c3ccc(I)cc3)c[nH]2)cc1C(=O)O [Cpd 289] | > 10000 nM | 86.27% | – | – | – | – |
| Cc1cc(C(N)=O)cc(C)c1C[C@H](N)C(=O)N(Cc1ccccc1)[C@@H](C)c1nc(-c2ccccc2)c[nH]1 [Cpd 114] | – | – | 49 nM | 12 nM | – | – |
| Cc1cc(O)cc(C)c1C[C@H](N)C(=O)N(C)[C@@H](C)c1nc(-c2ccccc2)c[nH]1 [Cpd 207] | – | – | 132 nM | 5.3 nM and 5.37 nM and 14.7 nM | – | – |
| COc1ccc(CN(C(=O)[C@@H](N)Cc2c(C)cc(C(N)=O)cc2C)[C@@H](C)c2nc(-c3ccccc3)c[nH]2)cc1-c1nnn[nH]1 [Cpd 8] | > 10000 nM | 94.03% | – | 0.43 nM and 0.15 nM | – | – |
| COc1ccc(CN(C(=O)[C@@H](N)Cc2c(C)cc(C(N)=O)cc2C)[C@@H](C)c2nc(-c3ccccc3)c[nH]2)cc1OC [Cpd 75] | 1.4 nM | 65.35% | 8.5 nM | 0.66 nM | – | – |
| C[C@@H](c1nc(-c2ccccc2)c[nH]1)N(Cc1ccccc1)C(=O)[C@@H](N)Cc1ccc(O)cc1 [Cpd 219] | – | – | – | 87.8 nM | – | – |
| Cc1cc(O)cc(C)c1C[C@H](N)C(=O)N(Cc1nc(-c2ccc(F)cc2)c(C)[nH]1)C(C)C [Cpd 163] | – | – | 301 nM and 63 nM | 4.51 nM | – | – |
| COC(=O)c1cc(CN(C(=O)[C@@H](N)Cc2c(C)cc(C(N)=O)cc2C)[C@@H](C)c2nc(-c3ccccc3)c[nH]2)ccc1OC [Cpd 17] | 1.3 nM | 68.64% | – | 60 nM | – | – |
| COc1ccc(CN(Cc2nc(-c3ccccc3)c[nH]2)C(=O)[C@@H](N)Cc2ccc(C(N)=O)cc2)cc1C(=O)O [Cpd 5] | > 10000 nM | 47.12% | – | 630 nM and 183 nM | – | – |
| Cc1ccccc1-c1nc(CN(C(=O)[C@@H](N)Cc2c(C)cc(O)cc2C)C(C)C)[nH]c1C [Cpd 165] | – | – | 322 nM | 23.6 nM | – | – |
| CCN(C(=O)[C@@H](N)Cc1c(C)cc(O)cc1C)[C@@H](C)c1nc(-c2ccccc2)c[nH]1 [Cpd 216] | – | – | – | 1.14 nM | – | – |
| Cc1cc(C(N)=O)cc(C)c1C[C@H](N)C(=O)N(Cc1ccc(C(=O)O)cc1)[C@@H](C)c1nc(-c2ccccc2)c[nH]1 [Cpd 50] | 1.4 nM | 60.27% | – | 0.58 nM | – | – |
| Cc1cc(O)cc(C)c1C[C@H](N)C(=O)N(Cc1ccccc1)[C@@H](C)c1nc(-c2ccccc2)c[nH]1 [Cpd 218] | – | – | 189 nM | 1.45 nM | – | – |
| Cc1cc(O)cc(C)c1C[C@H](N)C(=O)N(C)Cc1nc(-c2ccccc2)c[nH]1 [Cpd 199] | – | – | 209 nM | 26.3 nM | – | – |
| CCN(C(=O)[C@@H](N)Cc1ccc(O)cc1)[C@H](C)c1nc(-c2ccccc2)c[nH]1 [Cpd 214] | – | – | – | 308 nM | – | – |
| Cc1cc(C(N)=O)cc(C)c1C[C@H](N)C(=O)N(Cc1ccc(C(=O)O)o1)[C@@H](C)c1nc(-c2ccccc2)c[nH]1 [Cpd 256] | > 10000 nM | 89.19% | – | 3.82 nM | – | – |
| COc1ccc(CN(C(=O)[C@@H](N)Cc2c(C)cc(O)cc2C)[C@@H](C)c2nc(-c3ccccc3)c[nH]2)cc1C(=O)O [Cpd 260] | > 10000 nM | 100.97% | – | 0.13 nM | – | – |
| COc1ccc(CN(C(=O)[C@@H](N)Cc2c(C)cc(C(N)=O)cc2C)[C@@H](C)c2nc(-c3ccccc3)c[nH]2)cc1C(=O)O [Cpd 18] | – | 100% | – | – | 0.38 to 14.4 nM | > 10000 nM |
| Cc1cc(C(N)=O)cc(C)c1C[C@H](N)C(=O)N(Cc1cccc(C(=O)O)c1)[C@@H](C)c1nc(-c2ccccc2)c[nH]1 [Cpd 227] | > 10000 nM | 66.56% | – | 0.08 nM and 0.46 nM | – | – |
| CCN(C(=O)[C@@H](N)Cc1ccc(O)cc1)[C@@H](C)c1nc(-c2ccccc2)c[nH]1 [Cpd 215] | – | – | – | 126 nM | – | – |

| Compound | EC50 [1, 3] | DOR GTP-binding Assay v2 (% I) [1, 4] | Ki [2] | Ki (delta opioid receptor; read-out: r Ki δ) | Ki (delta opioid receptor; r Ki δ) | EC50 [1] |
| --- | --- | --- | --- | --- | --- | --- |
| Cc1cc(C(N)=O)cc(C)c1C[C@H](N)C(=O)N(Cc1cccc(-c2nnn[nH]2)c1)[C@@H](C)c1nc(-c2ccccc2)c[nH]1 [Cpd 242] | > 10000 nM | 91.45% | – | 0.18 nM | – | – |
| Cc1cc(O)cc(C)c1C[C@H](N)C(=O)N(Cc1nc(-c2ccccc2)c[nH]1)C1CCCCC1 [Cpd 190] | – | – | 285 nM | 13.8 nM | – | – |
| Cc1cc(O)cc(C)c1C[C@H](N)C(=O)N(Cc1nc(-c2ccccc2)c[nH]1)C(C)C [Cpd 194] | – | – | 103 nM | 14.8 nM | – | – |
| CCN(C(=O)[C@@H](N)Cc1c(C)cc(O)cc1C)[C@H](C)c1nc(-c2ccccc2)c[nH]1 [Cpd 217] | – | – | 506 nM | 5.4 nM | – | – |
| Cc1cc(O)cc(C)c1C[C@H](N)C(=O)N(Cc1cccc(C(=O)O)c1)[C@@H](C)c1nc(-c2ccccc2)c[nH]1 [Cpd 48] | > 10000 nM | 108.36% | – | – | – | – |
| Cc1cc(O)cc(C)c1C[C@H](N)C(=O)N(Cc1nc(-c2ccccc2)c(C)[nH]1)C(C)C [Cpd 166] | – | – | 300 nM and 375 nM | 5.58 nM and 12 nM | – | – |
| CC(C)N(C(=O)[C@@H](N)Cc1ccc(O)cc1)[C@@H](C)c1nc(-c2ccccc2)c[nH]1 [Cpd 225] | – | – | – | 112 nM | – | – |
| COC(=O)c1ccc(CN(C(=O)[C@@H](N)Cc2ccc(C(N)=O)cc2)[C@@H](C)c2nc(-c3ccccc3)c[nH]2)o1 [Cpd 303] | 95 nM | 23.85% | – | – | – | – |
| COc1ccc(CN(C(=O)[C@@H](N)Cc2ccc(O)cc2)[C@@H](C)c2nc(-c3ccccc3)c[nH]2)cc1C(=O)O [Cpd 261] | 21 nM | 30.04% | – | 8.01 nM | – | – |
| COc1ccc(CN(C(=O)[C@@H](N)Cc2ccc(C(N)=O)cc2)[C@@H](C)c2nc(-c3ccccc3)c[nH]2)cc1C(=O)O [Cpd 4] | 46 nM | 66.12% | – | 11 nM and 17 nM | – | – |
| Cc1cc(O)cc(C)c1C[C@H](N)C(=O)N(Cc1nc(-c2cc(C(F)(F)F)cc(C(F)(F)F)c2)c(C)[nH]1)C(C)C [Cpd 164] | – | – | – | 120 nM | – | – |
| C[C@H](c1nc(-c2ccccc2)c[nH]1)N(Cc1ccccc1)C(=O)[C@@H](N)Cc1ccc(O)cc1 [Cpd 221] | – | – | – | 9.58 nM | – | – |
| CC(C)N(Cc1nc(-c2ccccc2)c[nH]1)C(=O)[C@@H](N)Cc1ccc(O)cc1 [Cpd 195] | – | – | > 10000 nM | 306 nM | – | – |
| Cc1cc(O)cc(C)c1C[C@H](N)C(=O)N(Cc1nc(-c2ccccc2)c[nH]1)CC1CC1 [Cpd 192] | – | – | – | 7.64 nM | – | – |
| Cc1cc(O)cc(C)c1C[C@H](N)C(=O)N(Cc1ccnc2ccccc12)[C@@H](C)c1nc(-c2ccccc2)c[nH]1 [Cpd 246] | 0.3 nM | 47.01% | – | 0.035 nM | – | – |
| COC(=O)c1ccc(CN(C(=O)[C@@H](N)Cc2c(C)cc(C(N)=O)cc2C)[C@@H](C)c2nc(-c3ccccc3)c[nH]2)o1 [Cpd 257] | 7.4 nM | 48.88% | – | – | – | – |
| Cc1cc(O)cc(C)c1C[C@H](N)C(=O)N(C)[C@H](C)c1nc(-c2ccccc2)c[nH]1 [Cpd 206] | – | – | 275 nM | 5.8 nM | – | – |
| Cc1cc(O)cc(C)c1C[C@H](N)C(=O)N(C)[C@@H](C)c1nc(Cc2ccccc2)c[nH]1 [Cpd 205] | – | – | – | 4.44 nM | – | – |
| C[C@H](c1nc(-c2ccccc2)c[nH]1)N(C)C(=O)[C@@H](N)Cc1ccc(C(N)=O)cc1 [Cpd 203] | – | – | 501 nM | 49.3 nM | – | – |
